Laboratory results from ChEMBL document CHEMBL1130931, “Synthesis and structure-activity relationships of 7-(2-aminoalkyl)morpholinoquinolones as anti-Helicobacter pylori agents” (1998).
Converted amounts (≈) assume the structure as drawn.

Legend:
Assay type in all cases: functional
Helicobacter pylori = test: In vitro minimum inhibitory concentration against growth of Helicobacter pylori ATCC 43504.
Gerbillinae [1] = test: The ratio of the number of Mongolian gerbils in which Helicobacter pylori was not detected to that of Mongolian gerbils tested (percent) was represented as clearance rate at 3 mg/kg dose
Gerbillinae [2] = test: The ratio of the number of Mongolian gerbils in which Helicobacter pylori was not detected to that of Mongolian gerbils tested (percent) was represented as clearance rate at 10 mg/kg dose
Gerbillinae [3] = test: The ratio of the number of Mongolian gerbils in which Helicobacter pylori was not detected to that of Mongolian gerbils tested (percent) was represented as clearance rate at 1 mg/kg dose
Gerbillinae [4] = test: The ratio of the number of Mongolian gerbils in which Helicobacter pylori was not detected to that of Mongolian gerbils tested (percent) was represented as clearance rate at 0.3 mg/kg dose
Gerbillinae [5] = test: The ratio of the number of Mongolian gerbils in which Helicobacter pylori was not detected to that of Mongolian gerbils tested (percent) was represented as clearance rate at 30 mg/kg dose
Gerbillinae [6] = test: The ratio of the number of Mongolian gerbils in which Helicobacter pylori was not detected to that of Mongolian gerbils tested (percent) was represented as clearance rate

Row | MIC (Helicobacter pylori) [µg/mL] | SMILES | other results
1 | 0.39 (≈ 0.925 µM) | CCCNCC1CN(c2c(F)cc3c(=O)c(C(=O)O)cn(C4CC4)c3c2F)CCO1 (configuration not stated) | –
2 | 0.025 (≈ 0.0684 µM) | CC1(C)S[C@@H]2[C@H](NC(=O)[C@H](N)c3ccc(O)cc3)C(=O)N2[C@H]1C(=O)O [AMOXICILLIN] | –
3 | 0.2 | C[C@H]1COc2c(N3CCN(C)CC3)c(F)cc3c(=O)c(C(=O)O)cn1c23.C[C@H]1COc2c(N3CCN(C)CC3)c(F)cc3c(=O)c(C(=O)O)cn1c23.O [LEVOFLOXACIN] | Ratio (Gerbillinae [1]): 0%; Ratio (Gerbillinae [2]): 60%
4 | 0.025 (≈ 0.0596 µM) | COc1c(N2CCOC(CN(C)C)C2)c(F)cc2c(=O)c(C(=O)O)cn(C3CC3)c12 (configuration not stated) | –
5 | 0.012 (≈ 0.0286 µM) | COc1c(N2CCO[C@@H](CN(C)C)C2)c(F)cc2c(=O)c(C(=O)O)cn(C3CC3)c12 | Ratio (Gerbillinae [3]): 100%; Ratio (Gerbillinae [4]): 0%
6 | 0.05 (≈ 0.127 µM) | CNCC1CN(c2c(F)cc3c(=O)c(C(=O)O)cn(C4CC4)c3c2F)CCO1 (configuration not stated) | –
7 | 0.025 (≈ 0.0334 µM) | CC[C@H]1OC(=O)[C@H](C)[C@@H](O[C@H]2C[C@@](C)(OC)[C@@H](O)[C@H](C)O2)[C@H](C)[C@@H](O[C@@H]2O[C@H](C)C[C@H](N(C)C)[C@H]2O)[C@](C)(OC)C[C@@H](C)C(=O)[C@H](C)[C@@H](O)[C@]1(C)O [CLARITHROMYCIN] | Ratio (Gerbillinae [5]): 100%; Ratio (Gerbillinae [2]): 0%
8 | 0.39 (≈ 0.965 µM) | NC1CCN(c2nc3c(cc2F)c(=O)c(C(=O)O)cn3-c2ccc(F)cc2F)C1 (configuration not stated) [TOSUFLOXACIN] | Ratio (Gerbillinae [6]): 0%
9 | 0.025 (≈ 0.0614 µM) | CN(C)CC1CN(c2c(F)cc3c(=O)c(C(=O)O)cn(C4CC4)c3c2F)CCO1 (configuration not stated) | –
10 | 0.05 (≈ 0.118 µM) | CN(C)CC1CN(c2c(F)cc3c(=O)c(C(=O)O)cn(C4CC4)c3c2Cl)CCO1 (configuration not stated) | –
11 | 0.05 (≈ 0.132 µM) | NCC1CN(c2c(F)cc3c(=O)c(C(=O)O)cn(C4CC4)c3c2F)CCO1 (configuration not stated) | Ratio (Gerbillinae [6]): 80%
12 | 0.2 (≈ 0.508 µM) | NCCC1CN(c2c(F)cc3c(=O)c(C(=O)O)cn(C4CC4)c3c2F)CCO1 (configuration not stated) | –
13 | 0.05 (≈ 0.123 µM) | CCNCC1CN(c2c(F)cc3c(=O)c(C(=O)O)cn(C4CC4)c3c2F)CCO1 (configuration not stated) | –
14 | 0.1 (≈ 0.257 µM) | CN(C)CC1CN(c2cc3c(cc2F)c(=O)c(C(=O)O)cn3C2CC2)CCO1 (configuration not stated) | –
15 | 0.2 (≈ 0.459 µM) | CCN(CC)CC1CN(c2c(F)cc3c(=O)c(C(=O)O)cn(C4CC4)c3c2F)CCO1 (configuration not stated) | –
16 | 0.2 (≈ 0.51 µM) | C[C@@H]1CN(c2c(F)c(N)c3c(=O)c(C(=O)O)cn(C4CC4)c3c2F)C[C@H](C)N1 [SPARFLOXACIN] | Ratio (Gerbillinae [6]): 0%
17 | 0.78 (≈ 1.85 µM) | CC(=O)NCC1CN(c2c(F)cc3c(=O)c(C(=O)O)cn(C4CC4)c3c2F)CCO1 (configuration not stated) | –
18 | 0.39 (≈ 0.93 µM) | COc1c(N2CCO[C@H](CN(C)C)C2)c(F)cc2c(=O)c(C(=O)O)cn(C3CC3)c12 | –
